Marks after values point to notes of the source that are not given here.
Assays:
MSC = assay: Survival of MSC under oxygen–glucose-deprived (OGD) condition; format: cell-based, human; details: MSC pretreated with DNIC, glucose-free DMEM, 1% oxygen, 48 h
Method: Cell viability study of MSC, N2a, and HCEC cells with or without the treatment of DNIC–COOH was performed using a Cell Counting Kit-8 (IMT Formosa New Materials Co., Ltd., Taiwan) according to the manufacturer’s protocol. Briefly, cells were seeded into a 96-well plate at a density of 4 × 10^3 cells/well for MSC, 1 × 10^4 cells/well for N2a, and 8 × 10^3 cells/well for HCEC, respectively, and incubated overnight. On the next day, cells were treated with DNIC–COOH at different concentrations and incubated for 24 h. The culture medium was then removed before the cells were washed with DPBS. After addition of fresh medium containing CCK-8 solution to the cells and incubation for 1–3 h, the absorbance at 450 nm was then measured on a microplate reader (SpectraMax iD3, Molecular Devices, San Jose, CA) with a reference wavelength of 650 nm. Three independent experiments were executed, and the results were represented as mean ± SEM% (n = 3) with the untreated cells (control) as 100% viability. […]
To simulate the microenvironment of ischemic tissues, the MSC cells with or without DNIC priming were cultured using glucose-free DMEM in a humidified hypoxia incubator (1% oxygen; Heracell VIOS 160i, Thermo Fisher Scientific) for 48 h. Cell viability was assessed by live/dead staining or CCK-8 assay.

MSC/N2a/HCEC = assay: Intracellular release of NO, stated jointly for MSC/N2a/HCEC; format: cell-based
Method: (§1) Intracellular release of NO by DNIC–COOH was validated using the fluorescence probe 4-amino-5-methylamino-2′,7′-difluorofluorescein diacetate (DAF-FM) in combination with fluorescence analysis techniques. Briefly, the MSC cells (or N2a and HCEC cells) were seeded onto a 96-well black plate at a density of 6 × 10^3 cells/well (or 1 × 10^4 cells/well for N2a and 8 × 10^3 cells/well for HCEC cells) and incubated at 37 °C overnight. On the next day, the MSC cells were first treated with 10 μM of DAF-FM (or 5 μM for N2a and HCEC cells) and incubated at 37 °C for 0.5 h. […] Fluorescence intensity of the cells was then recorded using a microplate reader (SpectraMax iD3, Molecular Devices, San Jose, CA) with an excitation wavelength at 485 nm and an emission wavelength at 525 nm. Three independent experiments were executed to measure the time-dependent change of average fluorescence intensity. Time-dependent change of average fluorescence intensity for the MSC/N2a/HCEC cells with sequential treatment of DAF-FM (10 μM for MSC cells, 5 μM for N2a cells, 5 μM for HCEC cells; 0.5 h) and DNIC–COOMe (2.5 μM for MSC cells, 10 μM for N2a cells, 1 μM for HCEC cells) was determined in a similar manner.

deoxyMb = assay: Direct transfer of NO to deoxyMb yielding MbNO (UV–vis); format: biochemical; details: deoxyMb 5 μM/Cys 200 μM, generated [(NO)2Fe(SR)(SCys)]n−, phosphate buffer (pH 7.4), anaerobic
Method: After addition of 30 μL of 500 μM stock solution of DNIC–COOH (in DMSO) to a 4 mL quartz cuvette containing 5 μM metMb and 200 μM Cys in 3 mL of 25 mM PBS (pH 7.4), UV–vis spectra for this mixture solution were measured every 30 min. Transformation of […] into MbNO was achieved after reaction for 4 h based on the complete shift of UV–vis absorption bands from (410, 502, and 629) nm to (419, 548, and 578) nm.
Reactions of (a) 5 μM of DNIC–COOMe with 5 μM of metMb in the presence of 200 μM of Cys, (b) 5 μM of DNIC–COOH/DNIC–COOMe with 5 μM of deoxyMb in the presence of 200 μM of Cys, and (c) 5 μM of DNIC–COOH/DNIC–COOMe with 5 μM of metMb in the presence of 50 mg/mL BSA were performed under a similar manner.

N2a = assay: Intracellular release of NO (DAF-FM fluorescence) in N2a; format: cell-based, mouse; details: 100 μM DNIC–COOH or 10 μM DNIC–COOMe
Method: as §1, with “manner. […]” for “manner.”

Row | Compound | cell viability under OGD condition (MSC) | tmax for intracellular release of free NO (MSC/N2a/HCEC) | reaction time for complete conversion of deoxyMb into MbNO (deoxyMb) | reaction time for complete conversion of deoxyMb into MbNO (deoxyMb; listed as DNIC-COOH) | tmax for intracellular release of NO (N2a) | reaction time for complete conversion of deoxyMb into MbNO (deoxyMb; listed as DNIC-COOMe)
1 | O=[N][Fe]1([N]=O)[SH](CCC(=O)O)[Fe]([N]=O)([N]=O)[SH]1CCC(=O)O (stereo not shown) [DNIC–COOH, [(NO)2Fe(μ-SCH2CH2COOH)2Fe(NO)2]] | increase in the number of viable cells | 4 to 6 h | 3.5 ^f h | 3.5 h | 4 h | –
2 | COC(=O)CC[SH]1[Fe]([N]=O)([N]=O)[SH](CCC(=O)OC)[Fe]1([N]=O)[N]=O (stereo not shown) [DNIC–COOMe, [(NO)2Fe(μ-SCH2CH2COOCH3)2Fe(NO)2]] | comparable to that of OGD group | 1 to 2 h | 2.0 ^f h | – | 2 h | 2.0 h
